pKi: −log10 of the molar value.
Experiments:
Type in all cases: biochemical
[1] = target: T1, cathepsin L isolated from human liver (Homo sapiens, UniProt P07711); assay: Cathepsin L kinetic fluorescence enzyme inhibition assay; details: selectivity ratio versus calpain I
T1 construct: cathepsin L—isolated from human liver; purchased Calbiochem 219402; host or cells: human liver (tissue isolate)
Procedure, shortened: (§1)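 Cathepsin B (0.25 nM, human liver) with 100 μM Z-Phe-Arg-AMC; L (1 nM, human liver) with 2 μM Z-Phe-Arg-AMC; S (0.5 nM, recombinant) with 20 μM Z-Val-Val-Arg-AMC. pH 6.0 MES buffer, 2.5 mM L-cysteine, room temperature. Kinetic fluorescence (ex 390/em 460 nm); apparent Ki from IC50 by Cheng-Prusoff.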

[2] = target: T2, cathepsin K activated from recombinant human procathepsin K (Homo sapiens, UniProt P43235); assay: Cathepsin K kinetic fluorescence enzyme inhibition assay; details: selectivity ratio versus calpain I
T2 construct: purchased Calbiochem 342001; host or cells: E. coli
T2 sequence (P43235 115-329): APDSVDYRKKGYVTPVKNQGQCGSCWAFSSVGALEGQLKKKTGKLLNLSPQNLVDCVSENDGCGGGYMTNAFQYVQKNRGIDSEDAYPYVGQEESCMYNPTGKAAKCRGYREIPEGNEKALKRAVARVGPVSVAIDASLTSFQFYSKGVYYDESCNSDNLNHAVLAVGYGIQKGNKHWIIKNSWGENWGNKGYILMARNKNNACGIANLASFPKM
Procedure: The following solutions and buffers were employed: • HBS (for 40 ml): 800 μl M HEPES; 2.16 ml 100 mM KCl; 4.8 ml 1M NaCl; 3.59 ml 5% glucose; 60 μl μM MgSO4; 400 μl 100 mM Na pyruvate, 28.19 ml water; pH 7.2-7.5. • lysis buffer (for 20 ml): 400 μl M Tris pH 8.2; 2.74 ml 1M NaCl; 520 μl 0.5M EDTA; 2 ml 10% triton X-100; 0.8 ml (=1:25) CompletePlus (1 tablet/2 ml H2O); 200 μl 100 mM Pefabloc; 13.34 ml water, pH 8.2. • TBST (10×) (for 1 l): 100 mM Tris (12.1 g); 1.5M NaCl (87 g); 1% Tween 20 (10 g), adjusted to pH 8. I Enzyme Inhibition In Vitro: • Testing for blockade of the corresponding enzymic activities was carried out by means of kinetic fluorescence assays (excitation 390 nm, emission 460 nm). • Apparent Ki values were calculated from the experimentally determined IC50 values by the Cheng-Prussoff relation assuming a reversible competitive enzyme inhibition. The Km values of the substrates used under the assay conditions indicated above were: 90 μM (Z-Phe-Arg-AMC, cathepsin B), 10 μM (Z-Gly-Pro-Arg-AMC, cathepsin K), 2 μM (Z-Phe-Arg-AMC, cathepsin L), and 30 μM (Z-Val-Val-Arg-AMC, cathepsin S). • The indicated Ki values are averages of the inhibition constants calculated on the basis of 2 to 4 independent dose-effect plots.
The following assays were used: • 1. Calpain I: • 20 nM calpain-I—isolated from human erythrocytes (Calbiochem #208713), 100 μM Suc-Leu-Tyr-AMC (Bachem #1-1355) as substrate in buffer with 62 mM imidazole, 0.3 mM CaCl2, 0.10% CHAPS, 0.05% BSA, 1 mM DTT at pH 7.3 and room temperature. • 2. Cathepsin B: • 0.25 nM cathepsin B—isolated from human liver (Calbiochem #219362), 100 μM Z-Phe-Arg-AMC (Bachem #I-1160) as substrate 50 mM MES, 2 mM EDTA, 0.05% Brij 35, 2.5 mM L-cysteine, pH 6.0, room temperature. • 3. Cathepsin K: • 3 nM cathepsin K—activated from recombinant human procathepsin K from E. coli (Calbiochem #342001), 10 μM Z-Gly-Pro-Arg-AMC (Biomol #P-142) as substrate in 50 mM MES, 2 mM EDTA, 0.05% Brij 35, 2.5 mM L-cysteine, pH 6.0, room temperature. • 4. Cathepsin L: • 1 nM cathepsin L—isolated from human liver (Calbiochem #219402), 2 μM Z-Phe-Arg-AMC (Bachem #1-1160) as substrate in 50 mM MES, 2 mM EDTA, 0.05% Brij 35, 2.5 mM L-cysteine, pH 6.0, room temperature. • 5. Cathepsin S: • 0.5 nM recombinant human cathepsin S from E. coli (Calbiochem #219343), 20 μM Z-Val-Val-Arg-AMC (Bachem #1-1540) as substrate in 50 mM MES, 2 mM EDTA, 0.05% Brij 35, 2.5 mM L-cysteine, pH 6.0, room temperature. • The results of the in vitro determination are indicated in Table 1. The following abbreviations are used in Table 1: • The “Calpain activity” column, ++ stands for a calpain Ki (Ki(calpain)) of ≦40 nM and + means: 40 nM<Ki(Calpain)≦100 nM. • The “Sel. cat. B” column indicates the Ki(cathepsin B)/Ki(calpain) ratio. In this connection, ++ means a Ki(cathepsin B)/Ki(calpain) ratio of ≧30 and + means 10≦Ki(cathepsin B)/Ki(calpain)<30. • The “Sel. cat. K” column indicates the Ki(cathepsin K)/Ki(calpain) ratio. In this connection, ++ means a Ki(cathepsin K)/Ki(calpain) ratio of ≧30 and + means 10≦Ki(cathepsin K)/Ki(calpain)<30. • The “Sel. cat. L” column indicates the Ki(cathepsin L)/Ki(calpain) ratio. In this connection, ++ means a Ki(cathepsin L)/Ki(calpain) ratio of ≧50 and + means 30≦Ki(cathepsin L)/Ki(calpain)<50. • The “Sel. cat. S” column indicates the Ki(cathepsin S)/Ki(calpain) ratio. In this connection, ++ means a Ki(cathepsin S)/Ki(calpain) ratio of ≧100 and + means 50≦Ki(cathepsin S)/Ki(calpain)<100.

[3] = target: T3, calpain-I isolated from human erythrocytes (Homo sapiens, UniProt P07384); assay: Calpain I kinetic fluorescence enzyme inhibition assay; details: apparent Ki from IC50 by Cheng-Prussoff; average of 2 to 4 dose-effect plots
T3 construct: calpain-I—isolated from human erythrocytes; purchased Calbiochem 208713; host or cells: human erythrocytes (tissue isolate)
T3 sequence (P07384 1-714): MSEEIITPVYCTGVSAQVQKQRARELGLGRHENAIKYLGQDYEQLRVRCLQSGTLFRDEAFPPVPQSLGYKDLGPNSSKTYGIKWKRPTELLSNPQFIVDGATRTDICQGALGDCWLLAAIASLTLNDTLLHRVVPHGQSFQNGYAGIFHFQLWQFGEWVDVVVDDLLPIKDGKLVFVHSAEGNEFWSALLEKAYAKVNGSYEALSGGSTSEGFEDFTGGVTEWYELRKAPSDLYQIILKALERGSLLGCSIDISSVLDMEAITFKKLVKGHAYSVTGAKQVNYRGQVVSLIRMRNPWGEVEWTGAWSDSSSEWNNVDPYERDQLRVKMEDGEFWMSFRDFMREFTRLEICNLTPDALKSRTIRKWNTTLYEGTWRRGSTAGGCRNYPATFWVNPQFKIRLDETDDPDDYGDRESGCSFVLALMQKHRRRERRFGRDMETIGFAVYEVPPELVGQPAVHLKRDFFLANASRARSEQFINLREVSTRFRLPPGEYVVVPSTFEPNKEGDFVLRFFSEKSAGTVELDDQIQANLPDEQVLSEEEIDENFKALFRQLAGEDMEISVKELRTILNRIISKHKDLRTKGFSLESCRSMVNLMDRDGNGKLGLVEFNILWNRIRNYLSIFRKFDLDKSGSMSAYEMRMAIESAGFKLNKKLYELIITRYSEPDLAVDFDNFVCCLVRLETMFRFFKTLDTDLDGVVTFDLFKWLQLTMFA
T3 sequence (P04632 1-268 partner): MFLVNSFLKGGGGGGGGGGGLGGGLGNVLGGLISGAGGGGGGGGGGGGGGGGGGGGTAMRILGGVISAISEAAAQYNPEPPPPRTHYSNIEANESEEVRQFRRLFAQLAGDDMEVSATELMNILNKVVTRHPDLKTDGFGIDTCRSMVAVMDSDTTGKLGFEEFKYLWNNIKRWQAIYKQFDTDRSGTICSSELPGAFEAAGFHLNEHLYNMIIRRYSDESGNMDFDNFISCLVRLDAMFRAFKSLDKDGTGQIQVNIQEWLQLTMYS

[4] = target: T4, cathepsin B isolated from human liver (Homo sapiens, UniProt P07858); assay: Cathepsin B kinetic fluorescence enzyme inhibition assay; details: selectivity ratio versus calpain I
T4 construct: cathepsin B—isolated from human liver; purchased Calbiochem 219362; host or cells: human liver (tissue isolate)
Procedure, shortened: as §1

[5] = target: T5, recombinant human cathepsin S (Homo sapiens, UniProt P25774); assay: Cathepsin S kinetic fluorescence enzyme inhibition assay; details: selectivity ratio versus calpain I
T5 construct: purchased Calbiochem 219343; host or cells: E. coli
Procedure, shortened: as §1

T5 sequence (P25774 115-331): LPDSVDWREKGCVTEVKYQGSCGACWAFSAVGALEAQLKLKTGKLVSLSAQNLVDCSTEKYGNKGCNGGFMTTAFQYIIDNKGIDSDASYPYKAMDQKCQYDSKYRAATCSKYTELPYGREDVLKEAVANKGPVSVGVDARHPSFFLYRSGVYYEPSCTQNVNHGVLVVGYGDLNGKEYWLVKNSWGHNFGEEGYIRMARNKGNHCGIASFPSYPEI
T1 sequence (P07711 114-333): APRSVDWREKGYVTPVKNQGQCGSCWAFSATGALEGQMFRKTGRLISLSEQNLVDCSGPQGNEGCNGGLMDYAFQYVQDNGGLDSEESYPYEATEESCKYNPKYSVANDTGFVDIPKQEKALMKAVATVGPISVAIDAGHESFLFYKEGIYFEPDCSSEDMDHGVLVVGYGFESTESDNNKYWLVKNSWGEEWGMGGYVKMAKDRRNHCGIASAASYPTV

| Sel cat. K (Ki(cathepsin K)/Ki(calpain) ratio) [2] | pKi [3] | Sel cat. B (Ki(cathepsin B)/Ki(calpain) ratio) [4] | Compound | Sel cat. L (Ki(cathepsin L)/Ki(calpain) ratio) [1] | Sel cat. S (Ki(cathepsin S)/Ki(calpain) ratio) [5] |
| --- | --- | --- | --- | --- | --- |
| + (10≦Ki(cathepsin K)/Ki(calpain)<30) | ≥ 7.40 | + (10≦Ki(cathepsin B)/Ki(calpain)<30) | NC(=O)C(=O)C(Cc1ccccc1)NC(=O)c1cccnc1-n1ccc(-c2ccccc2)n1 (stereo not drawn) [Example 5, N-(3-Amino-1-benzyl-2,3-dioxopropyl)-2-(3-phenyl-1H-pyrazol-1-yl)nicotinamide] | ++ (Ki(cathepsin L)/Ki(calpain) ratio of ≧50) | ++ (Ki(cathepsin S)/Ki(calpain) ratio of ≧100) |
| + (10≦Ki(cathepsin K)/Ki(calpain)<30) | 7.00 to 7.40 | + (10≦Ki(cathepsin B)/Ki(calpain)<30) | NC(=O)C(=O)C(Cc1ccccc1)NC(=O)c1cccnc1-n1ccc(-c2ccccn2)n1 (stereo not drawn) [Example 35, N-(3-Amino-1-benzyl-2,3-dioxopropyl)-2-(3-pyridin-2-yl-1H-pyrazol-1-yl)nicotinamide] | ++ (Ki(cathepsin L)/Ki(calpain) ratio of ≧50) | ++ (Ki(cathepsin S)/Ki(calpain) ratio of ≧100) |
| + (10≦Ki(cathepsin K)/Ki(calpain)<30) | 7.00 to 7.40 | + (10≦Ki(cathepsin B)/Ki(calpain)<30) | NC(=O)C(=O)C(Cc1ccccc1)NC(=O)c1cccnc1-n1ccc(-c2ccc(F)cc2)n1 (stereo not drawn) [Example 38, N-(3-Amino-1-benzyl-2,3-dioxopropyl)-2-[3-(4-fluorophenyl)-1H-pyrazol-1-yl]nicotinamide] | ++ (Ki(cathepsin L)/Ki(calpain) ratio of ≧50) | ++ (Ki(cathepsin S)/Ki(calpain) ratio of ≧100) |
| + (10≦Ki(cathepsin K)/Ki(calpain)<30) | 7.00 to 7.40 | + (10≦Ki(cathepsin B)/Ki(calpain)<30) | COc1ccc(-c2ccn(-c3ncccc3C(=O)NC(Cc3ccccc3)C(=O)C(N)=O)n2)cc1 (stereo not drawn) [Example 48, N-(3-Amino-1-benzyl-2,3-dioxopropyl)-2-[3-(4-methoxyphenyl)-1H-pyrazol-1-yl]nicotinamide] | ++ (Ki(cathepsin L)/Ki(calpain) ratio of ≧50) | ++ (Ki(cathepsin S)/Ki(calpain) ratio of ≧100) |
| + (10≦Ki(cathepsin K)/Ki(calpain)<30) | 7.00 to 7.40 | + (10≦Ki(cathepsin B)/Ki(calpain)<30) | NC(=O)C(=O)C(Cc1ccc(Cl)cc1)NC(=O)c1cccnc1-n1ccc(-c2ccccc2)n1 (stereo not drawn) [Example 50, N-[3-Amino-1-(4-chlorobenzyl)-2,3-dioxopropyl]-2-(3-phenyl-1H-pyrazol-1-yl)nicotinamide] | + (30≦Ki(cathepsin L)/Ki(calpain)<50) | + (50≦Ki(cathepsin S)/Ki(calpain)<100) |

| Compound | Sel cat. K (Ki(cathepsin K)/Ki(calpain) ratio) [2] | pKi [3] | Sel cat. B (Ki(cathepsin B)/Ki(calpain) ratio) [4] | Sel cat. L (Ki(cathepsin L)/Ki(calpain) ratio) [1] | Sel cat. S (Ki(cathepsin S)/Ki(calpain) ratio) [5] |
| --- | --- | --- | --- | --- | --- |
| NC(=O)C(=O)C(Cc1ccc(OC(F)(F)F)cc1)NC(=O)c1cccnc1-n1ccc(-c2cccc(C(F)(F)F)c2)n1 (stereo not drawn) [Example 134, N-[3-Amino-2,3-dioxo-1-({4-[(trifluoromethyl)oxy]phenyl}methyl)propyl]-2-{3-[3-(trifluoromethyl)phenyl]-1H-pyrazol-1-yl}pyridine-3-carboxamide] | ++ (Ki(cathepsin K)/Ki(calpain) ratio of ≧30) |  | ++ (Ki(cathepsin B)/Ki(calpain) ratio of ≧30) | + (30≦Ki(cathepsin L)/Ki(calpain)<50) | + (50≦Ki(cathepsin S)/Ki(calpain)<100) |
| N-{3-Amino-1-[(4-fluorophenyl)methyl]-2,3-dioxopropyl}-2-[3-(2-chloro-3-fluorophenyl)-1H-pyrazol-1-yl]pyridine-3-carboxamide [Example 154] | ++ (Ki(cathepsin K)/Ki(calpain) ratio of ≧30) |  | ++ (Ki(cathepsin B)/Ki(calpain) ratio of ≧30) | ++ (Ki(cathepsin L)/Ki(calpain) ratio of ≧50) | ++ (Ki(cathepsin S)/Ki(calpain) ratio of ≧100) |

Source: patent US7728012B2, “Carboxamide compounds and their use as calpain inhibitors” (Abbott GmbH & Co. KG, priority 2006, dated 2010)
